Each block holds one molecule with its values, some of them ahead of it.
Legend:
[1] = molecular target: T1, Serine/threonine-protein kinase 17A (Homo sapiens) (UniProt Q9UEE5); assay: Inhibition of human recombinant DRAK1 at 500 nM in presence of ATP by radiometric assay relative to control
T1 sequence (whole entry): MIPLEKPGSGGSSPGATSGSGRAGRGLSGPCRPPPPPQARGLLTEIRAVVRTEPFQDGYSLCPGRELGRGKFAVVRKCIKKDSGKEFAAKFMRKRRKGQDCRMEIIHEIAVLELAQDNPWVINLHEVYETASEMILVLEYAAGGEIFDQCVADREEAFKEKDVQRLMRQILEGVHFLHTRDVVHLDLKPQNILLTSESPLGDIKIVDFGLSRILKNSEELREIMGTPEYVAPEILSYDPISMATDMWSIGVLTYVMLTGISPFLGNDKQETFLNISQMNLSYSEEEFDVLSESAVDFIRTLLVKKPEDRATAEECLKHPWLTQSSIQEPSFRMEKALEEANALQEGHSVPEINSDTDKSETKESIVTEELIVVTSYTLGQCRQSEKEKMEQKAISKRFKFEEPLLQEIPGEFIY

[2] = molecular target: Tyrosine-protein kinase ABL2 (Homo sapiens) (UniProt P42684); assay: Inhibition of human recombinant ABL2 at 15 nM related to control ULK1
[3] = molecular target: Mitogen-activated protein kinase 8 (Homo sapiens) (UniProt P45983); assay: Inhibition of human recombinant JNK1 at 15 nM in presence of ATP by radiometric assay relative to control
[4] = molecular target: T2, Serine/threonine-protein kinase Nek3 (Homo sapiens) (UniProt P51956); assay: Inhibition of human recombinant NEK3 at 15 nM in presence of ATP by radiometric assay relative to control
T2 sequence (whole entry): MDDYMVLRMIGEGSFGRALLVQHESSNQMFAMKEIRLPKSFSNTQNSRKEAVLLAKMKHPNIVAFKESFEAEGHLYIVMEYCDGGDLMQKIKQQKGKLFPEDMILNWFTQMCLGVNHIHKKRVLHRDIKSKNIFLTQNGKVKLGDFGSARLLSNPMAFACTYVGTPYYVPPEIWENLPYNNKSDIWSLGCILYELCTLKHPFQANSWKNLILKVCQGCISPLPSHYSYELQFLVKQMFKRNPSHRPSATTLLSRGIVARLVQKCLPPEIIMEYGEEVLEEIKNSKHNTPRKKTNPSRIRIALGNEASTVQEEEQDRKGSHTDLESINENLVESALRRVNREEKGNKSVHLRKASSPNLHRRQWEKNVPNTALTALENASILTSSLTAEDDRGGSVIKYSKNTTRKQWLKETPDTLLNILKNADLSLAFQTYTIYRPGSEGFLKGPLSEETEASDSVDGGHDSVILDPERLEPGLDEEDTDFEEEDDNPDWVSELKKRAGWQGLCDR

[5] = molecular target: T3, SNF-related serine/threonine-protein kinase (Homo sapiens) (UniProt Q9NRH2); assay: Inhibition of human recombinant SNRK at 40 nM related to control ULK1
T3 sequence (whole entry): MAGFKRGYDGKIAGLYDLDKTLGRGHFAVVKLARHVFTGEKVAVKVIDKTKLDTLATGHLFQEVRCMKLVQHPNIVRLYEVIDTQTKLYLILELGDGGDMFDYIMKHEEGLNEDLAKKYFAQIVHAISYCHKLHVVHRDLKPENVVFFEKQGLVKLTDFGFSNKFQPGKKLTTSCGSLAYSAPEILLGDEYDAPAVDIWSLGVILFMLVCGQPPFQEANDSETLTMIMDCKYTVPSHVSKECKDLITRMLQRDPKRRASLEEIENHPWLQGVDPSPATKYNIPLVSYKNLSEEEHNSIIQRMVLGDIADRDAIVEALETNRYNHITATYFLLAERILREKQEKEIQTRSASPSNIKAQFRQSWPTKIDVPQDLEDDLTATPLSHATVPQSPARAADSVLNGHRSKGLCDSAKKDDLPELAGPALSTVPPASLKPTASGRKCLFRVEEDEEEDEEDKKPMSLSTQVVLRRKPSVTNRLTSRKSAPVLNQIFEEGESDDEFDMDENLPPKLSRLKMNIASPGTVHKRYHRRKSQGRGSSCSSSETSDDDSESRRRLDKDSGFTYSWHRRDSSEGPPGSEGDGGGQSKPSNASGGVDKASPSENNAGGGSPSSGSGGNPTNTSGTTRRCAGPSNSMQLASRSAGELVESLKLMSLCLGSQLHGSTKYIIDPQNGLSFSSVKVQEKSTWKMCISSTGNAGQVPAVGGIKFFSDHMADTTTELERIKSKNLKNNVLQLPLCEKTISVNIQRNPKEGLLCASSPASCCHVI

[6] = molecular target: T4, NUAK family SNF1-like kinase 2 (Homo sapiens) (UniProt Q9H093); assay: Inhibition of human recombinant NuaK2 at 40 nM in presence of ATP by radiometric assay relative to control
T4 sequence (whole entry): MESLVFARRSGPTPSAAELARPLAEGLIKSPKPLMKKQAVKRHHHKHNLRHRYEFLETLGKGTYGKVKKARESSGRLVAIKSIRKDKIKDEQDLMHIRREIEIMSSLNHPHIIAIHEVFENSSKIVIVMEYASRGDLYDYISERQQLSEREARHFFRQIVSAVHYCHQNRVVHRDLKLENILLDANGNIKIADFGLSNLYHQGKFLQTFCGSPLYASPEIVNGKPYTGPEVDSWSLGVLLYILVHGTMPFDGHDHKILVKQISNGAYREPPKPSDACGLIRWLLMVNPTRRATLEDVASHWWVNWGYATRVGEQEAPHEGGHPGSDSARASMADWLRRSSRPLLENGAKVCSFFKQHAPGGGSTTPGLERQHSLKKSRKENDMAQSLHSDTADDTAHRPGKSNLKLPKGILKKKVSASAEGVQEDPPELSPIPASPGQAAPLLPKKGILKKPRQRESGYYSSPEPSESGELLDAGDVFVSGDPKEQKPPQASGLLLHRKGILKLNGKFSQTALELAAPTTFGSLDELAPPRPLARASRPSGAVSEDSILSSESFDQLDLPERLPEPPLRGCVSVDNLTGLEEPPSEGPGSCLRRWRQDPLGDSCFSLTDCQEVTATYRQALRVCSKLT

Mitogen-activated protein kinase 8 (Homo sapiens), sequence (P45983 whole entry): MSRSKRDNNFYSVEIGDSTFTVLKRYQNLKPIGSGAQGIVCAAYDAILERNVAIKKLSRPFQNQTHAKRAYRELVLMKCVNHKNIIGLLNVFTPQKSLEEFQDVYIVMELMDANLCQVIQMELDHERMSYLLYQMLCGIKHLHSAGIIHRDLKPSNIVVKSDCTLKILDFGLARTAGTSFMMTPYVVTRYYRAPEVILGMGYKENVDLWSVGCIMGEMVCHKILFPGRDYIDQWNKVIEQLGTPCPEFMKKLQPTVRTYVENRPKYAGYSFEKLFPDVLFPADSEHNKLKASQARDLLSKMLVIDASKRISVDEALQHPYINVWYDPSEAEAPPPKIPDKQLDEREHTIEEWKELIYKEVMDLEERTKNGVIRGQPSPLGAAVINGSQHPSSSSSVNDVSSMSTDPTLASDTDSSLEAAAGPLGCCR
Tyrosine-protein kinase ABL2 (Homo sapiens), sequence (P42684 whole entry): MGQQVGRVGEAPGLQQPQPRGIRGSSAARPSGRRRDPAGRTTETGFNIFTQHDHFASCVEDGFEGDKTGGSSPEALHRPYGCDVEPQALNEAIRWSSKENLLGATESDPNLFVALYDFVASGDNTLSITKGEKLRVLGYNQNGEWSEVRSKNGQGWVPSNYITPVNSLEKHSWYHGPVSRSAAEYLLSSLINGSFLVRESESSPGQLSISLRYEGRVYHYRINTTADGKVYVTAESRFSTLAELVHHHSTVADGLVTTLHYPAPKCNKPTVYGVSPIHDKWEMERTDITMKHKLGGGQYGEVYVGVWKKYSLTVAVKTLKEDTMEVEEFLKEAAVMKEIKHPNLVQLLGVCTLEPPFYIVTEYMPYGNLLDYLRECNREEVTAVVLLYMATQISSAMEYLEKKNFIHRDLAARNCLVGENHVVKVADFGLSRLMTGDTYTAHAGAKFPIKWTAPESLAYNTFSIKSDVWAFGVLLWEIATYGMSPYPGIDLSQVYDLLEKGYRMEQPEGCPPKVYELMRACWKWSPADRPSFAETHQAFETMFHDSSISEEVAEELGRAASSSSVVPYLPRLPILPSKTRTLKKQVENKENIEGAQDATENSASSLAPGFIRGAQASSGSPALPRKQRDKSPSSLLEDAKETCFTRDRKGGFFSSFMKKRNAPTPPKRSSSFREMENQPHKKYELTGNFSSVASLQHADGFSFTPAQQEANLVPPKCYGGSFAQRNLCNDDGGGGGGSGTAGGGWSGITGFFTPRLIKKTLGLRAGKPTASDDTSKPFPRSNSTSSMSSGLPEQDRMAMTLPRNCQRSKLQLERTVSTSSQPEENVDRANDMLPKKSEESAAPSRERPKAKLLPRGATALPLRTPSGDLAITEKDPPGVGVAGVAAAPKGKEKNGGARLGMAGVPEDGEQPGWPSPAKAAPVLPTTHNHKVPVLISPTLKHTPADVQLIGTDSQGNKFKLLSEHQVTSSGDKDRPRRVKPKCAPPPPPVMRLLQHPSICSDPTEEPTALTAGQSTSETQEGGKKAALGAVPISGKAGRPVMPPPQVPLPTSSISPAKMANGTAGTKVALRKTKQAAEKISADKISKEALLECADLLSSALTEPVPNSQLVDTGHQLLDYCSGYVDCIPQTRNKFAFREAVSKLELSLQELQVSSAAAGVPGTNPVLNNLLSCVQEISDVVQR

inhibition [1]: 0%
Structure (SMILES): CNC(=O)c1ccccc1Oc1nc(Nc2cc(OC)c(OC)c(OC)c2)ncc1Br

fold change (FC) [2]: 0.48 | inhibition [3]: 8% | inhibition [4]: 1%
Structure (SMILES): CC(C)[C@H](NC(=O)c1cc(-c2cnn3cc(-c4ccc(OCCN5CCCCC5)cc4)cnc23)cs1)C(F)(F)F

fold change (FC) [5]: 0 | inhibition [6]: 3%
Structure (SMILES): O=C(N[C@@H](C1CC1)C(F)(F)F)c1cc(-c2cnn3cc(-c4ccc(F)cc4)cnc23)cs1
